Assay results as given in patent US20110124086A1, “Hepatitis C Virus Culture System” (The Regents of the University of California, priority 2009, published 2011).

Assays:
Assay type in all cases: cell-based, Hepatitis C virus
[1] = test system: HCV genotype 1b (CG1b) in FH-CG1bRbz cells; test: Effect of PKR and Jak2 inhibitor on intracellular HCV RNA in FH-CG1bRbz cells, qRT-PCR; conditions: C5 1 μM or Jak2 inhibitor II 10 and 50 μM, 48 or 96 hr incubation
Description: (§1) Cg1bRbz cells were treated with C5 (1 μM) or Jak2 inhibitor II (10 and 50 μM) for 48 or 96 hrs and analyzed for intracellular HCV RNAs by qRT-PCR. Huh7 cells transfected with JFH1 RNA were also used as a control. Bottom right—Huh7 cells were inoculated with virus samples prepared from control and Jak2 inhibitor II-treated later passage FH cell culture medium and analyzed for HCV RNA after 48 hrs by qRT-PCR.
HCV RNA was quantified by quantitative reverse transcriptase polymerase chain reaction (qRT-PCR) as described. Intracellular HCV RNA levels were normalized by glyceraldehydes 3-phosphate dehydrogenase mRNA content. Standard curves were generated using in vitro-transcribed HCV RNA's. Control reactions containing no reverse transcriptase were also carried out as controls. HCV protein levels were visualized by immunofluorescence staining followed by confocal microscopy. […]
(§2) It was then examined whether suppressing the hepatocyte innate immunity by inhibiting Jak/Stat pathway and/or PKR could increase the HCV titer in Applicants' FH cell clones and therefore, increase the infectivity of CG1b. HCV RNA level was analyzed in FH-CG1 bRbz cells after 48 or 96 hr incubation with C5, an inhibitor of PKR, or Jak2 Inhibitor II.

HCV genotype 1b (CG1b) = test: HCV infectivity of medium from Jak2 inhibitor II-treated FH-CG1bRbz cells inoculated on Huh7 cells, HCV RNA by qRT-PCR; conditions: HCV RNA after 48 hrs, later passage FH cell culture medium
Description: as §1
(§3) Huh7 human hepatoma cells were transfected with in vitro-transcribed JFH1 RNA and cultured, as previously described (Choi et al. (2004) Hepatology 39:91-9). Telomerase-reconstituted primary human hepatocytes were transfected with pEF-CG1 bRbz/Neo, pEF-CG1 bGNDRbz/Neo, or control EF-driven vector alone as described for Huh7, and cell clones that are stably transfected with these constructs were selected and maintained in G418-containing medium (Invitrogen) (Wege et al. (2004) Gastroenterology 124:432-44). […]
(§4) HCV RNA was quantified by quantitative reverse transcriptase polymerase chain reaction (qRT-PCR) as described. […]
as §2

[2] = test system: JFH1 (HCV genotype 2a) in Huh7 cells; test: Effect of PKR and Jak2 inhibitor on intracellular HCV RNA in Huh7 cells transfected with JFH1 RNA, qRT-PCR; conditions: C5 1 μM or Jak2 inhibitor II 10 and 50 μM, 48 or 96 hrs
Description: as §1, §3, §4, §2

[3] = test system: HCV of genotype 1b (CG1b); test: Antiviral activity of IFNα in Huh7 cells infected with FH-CG1bRbz hepatocyte-derived medium, HCV RNA by qRT-PCR; conditions: IFNα 100 U/ml once, 48 hrs after infection, analysed after 24 hrs
Description: Huh7 cells were infected with hepatocyte-derived medium. Then, after 48 hrs, cells were treated with 0 or 100 U/ml of IFNα once and analyzed for HCV RNA by qRT-PCR after 24 hrs. N.D. indicates not detectable or below the level of detection.
Huh7 human hepatoma cells were transfected with in vitro-transcribed JFH1 RNA and cultured, as previously described (Choi et al. (2004) Hepatology 39:91-9). Telomerase-reconstituted primary human hepatocytes were transfected with pEF-CG1 bRbz/Neo, pEF-CG1 bGNDRbz/Neo, or control EF-driven vector alone as described for Huh7, and cell clones that are stably transfected with these constructs were selected and maintained in G418-containing medium (Invitrogen) (Wege et al. (2004) Gastroenterology 124:432-44). For virus infection, the extracellular medium from JFH1-transfected cells and CG1b transfected cell clones was cleared by low speed centrifugation at 5,000 rpm for 10 min and concentrated ˜10 fold by ultracentrifugation at 21,000 rpm for 6.5 hrs at 4° C. The medium was also pre-treated with RNase (and also with DNase for CG1b medium) for 30 min at room temperature prior to these centrifugation steps. Then, the concentrated virus samples were used to inoculate naïve Huh7 or Huh7.5 cells (Wakita et al. (2005) Nat. Med. 11:791-6). […]
as §4

Row | Molecule | intracellular HCV RNA in FH-CG1bRbz cells [1] | HCV infectivity of medium from Jak2 inhibited FH-CG1bRbz cells compared to medium from control cells (HCV genotype 1b (CG1b)) | intracellular HCV RNA in Huh7 cells transfected with JFH1 RNA [2] | HCV titer (HCV RNA) in CG1b-infected Huh7 cells [3] | HCV titer (HCV RNA) in CG1b-infected Huh7 cells ([3]; listed as interferon alpha)
1 | BrC1C(Br)C(Br)C(Br)C(Br)C1Br (centres unmarked) [Jak2 Inhibitor II] | intracellular HCV RNA increased | increased only modestly | an increase in the intracellular HCV RNA |  | 
2 | interferon alpha [IFNα] |  |  |  | decreased HCV titer | decreased
